Patent US11358973B2, “Di(hetero)aryl macrocyclic compound for inhibiting protein kinase activity” (Shenzhen TargetRx, Inc., priority 2018, dated 2022)
Like-named read-outs stand apart in the source and are kept apart here.

Assays:
[1] = molecular target: TRKA kinase (Homo sapiens, UniProt P04629); experiment: Biochemical kinase analysis (HTRF), TRKA; conditions: 23° C., read-out: Kinase IC50 (nM) TRK A
Protocol: (§1) Inhibition of TRKA, TRKB, TRKC kinases can be measured by HTRF ([…]) method. The reaction was performed in a 384-well plate at 23° C. with a volume of 20 μL. TRKA TRKB or TRKC kinase were mixed with pre-formulated and diluted compounds of different concentrations for ten minutes in duplicate for each concentration, wherein 11 concentrations made with a 3-fold gradient dilution from the starting concentration of 300 nM were made and the final concentration of DMSO was 2%. The corresponding substrate and ATP were added thereto, and reacted at room temperature for 20 minutes (both a negative and a positive control were set: negative control is blank control, positive control is Entrectinib). After the reaction, detection reagent was added thereto (reagent in HTRF Kinase TK kit), and after incubation at room temperature for 30 minutes, detection was carried out by PerkinElmer Envision microplate reader for determining enzyme activity in the presence of the compounds of the present disclosure at various concentrations, and the inhibitory activity of different concentrations of compounds against enzyme activity was calculated. After that, in accordance with four-factors function and Graphpad 5.0 software, inhibitory activity on enzyme activity under different concentrations of compounds was fitted and IC50 values were calculated.

[2] = molecular target: TRKB kinase (Homo sapiens, UniProt Q16620); experiment: Biochemical kinase analysis (HTRF), TRKB; conditions: 23° C., read-out: Kinase IC50 (nM) TRK B
TRKB kinase, sequence (Q16620 32-822): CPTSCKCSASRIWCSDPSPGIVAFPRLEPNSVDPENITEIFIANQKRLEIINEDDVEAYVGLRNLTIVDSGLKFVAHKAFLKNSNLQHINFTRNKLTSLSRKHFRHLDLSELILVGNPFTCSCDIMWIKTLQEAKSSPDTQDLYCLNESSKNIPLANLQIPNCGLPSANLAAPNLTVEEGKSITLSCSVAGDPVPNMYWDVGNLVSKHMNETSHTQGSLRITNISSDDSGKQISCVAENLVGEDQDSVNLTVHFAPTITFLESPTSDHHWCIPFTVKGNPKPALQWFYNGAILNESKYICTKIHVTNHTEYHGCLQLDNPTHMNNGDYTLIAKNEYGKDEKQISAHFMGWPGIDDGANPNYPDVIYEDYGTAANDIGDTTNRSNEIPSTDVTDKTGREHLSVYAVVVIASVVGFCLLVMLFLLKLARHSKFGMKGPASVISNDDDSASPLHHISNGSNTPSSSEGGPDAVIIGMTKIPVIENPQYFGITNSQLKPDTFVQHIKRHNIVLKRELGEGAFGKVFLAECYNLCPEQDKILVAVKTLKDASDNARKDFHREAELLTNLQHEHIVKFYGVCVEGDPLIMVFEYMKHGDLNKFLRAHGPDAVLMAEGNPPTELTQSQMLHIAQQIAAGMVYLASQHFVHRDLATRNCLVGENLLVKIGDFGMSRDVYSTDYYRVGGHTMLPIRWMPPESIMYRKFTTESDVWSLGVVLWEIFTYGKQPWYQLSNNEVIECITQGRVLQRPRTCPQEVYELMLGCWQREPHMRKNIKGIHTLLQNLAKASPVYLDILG
Protocol: as §1

[3] = molecular target: TRKC kinase (Homo sapiens, UniProt Q16288); experiment: Biochemical kinase analysis (HTRF), TRKC; conditions: 23° C., read-out: Kinase IC50 (nM) TRK C
TRKC kinase, sequence (Q16288 32-839): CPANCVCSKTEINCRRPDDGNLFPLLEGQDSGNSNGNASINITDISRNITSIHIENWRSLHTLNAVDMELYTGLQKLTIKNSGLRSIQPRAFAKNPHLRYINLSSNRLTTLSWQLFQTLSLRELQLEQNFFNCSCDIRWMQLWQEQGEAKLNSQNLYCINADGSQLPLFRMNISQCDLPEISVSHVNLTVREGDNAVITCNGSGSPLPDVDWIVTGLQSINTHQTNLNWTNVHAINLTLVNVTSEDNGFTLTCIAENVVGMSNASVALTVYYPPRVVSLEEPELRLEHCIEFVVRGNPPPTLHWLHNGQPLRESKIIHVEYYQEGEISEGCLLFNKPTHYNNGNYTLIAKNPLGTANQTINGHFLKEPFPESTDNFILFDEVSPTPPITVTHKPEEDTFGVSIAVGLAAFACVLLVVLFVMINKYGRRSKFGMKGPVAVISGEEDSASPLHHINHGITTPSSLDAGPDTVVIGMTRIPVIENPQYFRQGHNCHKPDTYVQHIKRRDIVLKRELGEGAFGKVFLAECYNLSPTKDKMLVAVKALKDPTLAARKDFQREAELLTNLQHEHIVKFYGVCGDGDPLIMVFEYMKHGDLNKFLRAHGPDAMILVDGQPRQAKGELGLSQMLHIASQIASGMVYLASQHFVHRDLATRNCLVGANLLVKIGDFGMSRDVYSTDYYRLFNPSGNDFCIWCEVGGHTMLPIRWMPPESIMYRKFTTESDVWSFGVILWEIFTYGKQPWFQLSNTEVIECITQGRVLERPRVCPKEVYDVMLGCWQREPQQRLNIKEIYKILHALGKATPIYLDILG
Protocol: as §1

[4] = system: KM12 cell line; experiment: KM12 cell proliferation analysis (CellTiter-Glo); format: cell-based; conditions: Homo sapiens, 72 h
Protocol: The CGT method was used to detect the in vitro anti-proliferative activity of the compounds of the present disclosure on tumor cells cultured in vitro. The KM12 cell line was maintained in RPMI-1640 medium containing 10% fetal bovine serum and antibiotics, the cells in the logarithmic growth phase were harvested and planted in a 96-well plate. The plate was incubated in an incubator at 37° C., containing 5% carbon dioxide gas overnight. After the test compounds were dissolved in DMSO, a 3-fold concentration gradient dilution with 9 compound concentrations was made. Pre-prepared compounds of different concentrations were transferred to the cell plate in triplicate for each concentration, and continue culturing for 72 h. The final concentration of DMSO in the system was 0.1%, and the initial concentration of the test compound was 300 nM.
CellTiter-Glo reagent was added to the cell plate, and incubated at room temperature for 30 minutes to stabilize the optical signal. Detection was carried out by PerkinElmer Envision microplate reader for determining the inhibitory activity of the compound of the present disclosure at various concentrations on cell proliferation. The inhibitory activity of compounds at different concentrations on cell proliferation was fitted according to Graphpad 5.0 software, and IC50 values were calculated.

[5] = Pharmacokinetic experiment in rats; format: in vivo, Sprague-Dawley rats; parameters: Cl_pred (L/kg): unit not given here; conditions: rat; for AUC(0-t) / Cmax / Tmax / half-life / AUC(0-inf) / MRT inf / bioavailability: male, Sprague-Dawley, plasma; for AUC(0-inf): read-out: AUCINF_pred; for MRT inf: read-out: MRTINF_pred; for bioavailability: PO 10 mg/kg vs IV 3 mg/kg
Protocol: 6 male Sprague-Dawley rats (7-8 weeks old, and weighing approximately 210 g) were divided into 2 groups with 3 rats in each group. The rats were intravenously or orally administered a single dose of compounds (3 mg/kg intravenously, 10 mg/kg orally) to compare pharmacokinetic differences.
The rats were feeded on standard food and water. Fasting was started 16 hours before the test. The drug was dissolved in PEG400 and dimethyl sulfoxide. The blood samples were collected from eyelids at the time points of 0.083 hour, 0.25 hour, 0.5 hour, 1 hour, 2 hours, 4 hours, 6 hours, 8 hours, 12 hours, and 24 hours after administration.
Rats were briefly anesthetized after inhalation of diethyl ether and 300 μL of blood sample was collected from the eyelids into test tubes. There was 30 μL of 1% heparin salt solution in the test tube. Tubes were dried at 60° C. overnight before use. After the blood sample was collected at the last time point, the rats were sacrificed after ether anesthesia.
Immediately after the collection of the blood sample, the test tube was gently inverted at least 5 times to ensure sufficient mixing and then placed on ice. The blood sample was centrifuged at 5000 rpm at 4° C. for 5 minutes to separate the plasma from the red blood cells. 100 μL of plasma was aspirated into a clean plastic centrifuge tube with a pipette, marking with the name of the compound and time point. Plasma was stored at −80° C. prior to analysis. The concentration of the compound of the present disclosure in plasma was determined by LC-MS/MS. The pharmacokinetic parameters were calculated based on the blood concentration of the drug for each animal at different time points.

TRKA kinase, sequence (P04629 33-796): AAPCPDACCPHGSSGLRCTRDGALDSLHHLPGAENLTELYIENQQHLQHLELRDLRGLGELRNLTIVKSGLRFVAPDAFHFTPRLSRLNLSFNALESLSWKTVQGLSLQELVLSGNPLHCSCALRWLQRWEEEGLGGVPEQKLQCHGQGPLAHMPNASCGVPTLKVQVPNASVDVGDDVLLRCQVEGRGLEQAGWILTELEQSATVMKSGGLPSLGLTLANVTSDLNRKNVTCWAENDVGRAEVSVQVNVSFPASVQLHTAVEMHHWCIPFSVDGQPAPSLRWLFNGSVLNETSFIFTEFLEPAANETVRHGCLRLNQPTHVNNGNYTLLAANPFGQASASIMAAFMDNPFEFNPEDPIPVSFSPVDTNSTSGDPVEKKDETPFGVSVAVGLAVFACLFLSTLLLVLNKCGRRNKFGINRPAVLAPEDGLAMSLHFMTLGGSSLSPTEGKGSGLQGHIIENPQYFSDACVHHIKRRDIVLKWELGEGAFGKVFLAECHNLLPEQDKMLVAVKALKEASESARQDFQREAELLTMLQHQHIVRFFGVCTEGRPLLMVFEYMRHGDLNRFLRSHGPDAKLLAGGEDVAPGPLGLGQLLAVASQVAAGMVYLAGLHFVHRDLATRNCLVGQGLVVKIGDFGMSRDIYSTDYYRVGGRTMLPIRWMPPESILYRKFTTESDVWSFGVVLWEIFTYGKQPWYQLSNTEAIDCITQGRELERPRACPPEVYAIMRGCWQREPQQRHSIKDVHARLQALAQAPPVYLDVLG

Compound	IC50 [1] [nM]	IC50 [2] [nM]	IC50 [3] [nM]	AUC(0-t) ([5]; IV 3 mg/kg) [ng·h/mL]	Cmax ([5]; IV 3 mg/kg) [ng/mL]	Tmax ([5]; IV 3 mg/kg) [h]	half-life ([5]; IV 3 mg/kg) [h]	AUC(0-inf) ([5]; IV 3 mg/kg) [ng·h/mL]	MRT inf ([5]; IV 3 mg/kg) [h]	AUC(0-t) ([5]; PO 10 mg/kg) [ng·h/mL]	Cmax ([5]; PO 10 mg/kg) [ng/mL]	Tmax ([5]; PO 10 mg/kg) [h]	half-life ([5]; PO 10 mg/kg) [h]	bioavailability [5] [%]	AUC(0-inf) ([5]; PO 10 mg/kg) [ng·h/mL]	MRT inf ([5]; PO 10 mg/kg) [h]	Vz_pred ([5]; IV 3 mg/kg) [L/kg]	Vz_pred ([5]; PO 10 mg/kg) [L/kg]	IC50 [4] [nM]	also measured
O=C1CCOc2ccc(F)cc2C2CCCN2c2ccn3ncc(c3n2)N1 (racemic) [Compound 9a, 9-fluoro-13-oxa-2,17,20,21,24-pentaazapentacyclo[16.5.2.0^2,6.0^7,12.0^21,25]pentacosane-1(24),7,9,11,18(25),19,22-heptaene-16-one]	0.17	0.1	0.1																1.78	
O=C1CCOc2ccc(F)cc2[C@H]2CCCN2c2ccn3ncc(c3n2)N1 [Compound L-1-A, (6R)-9-fluoro-13-oxa-2,7,20,21,24-pentaazapentacyclo[16.5.2.0^26.0^7,12.0^21,25]pentacosane-1(24),7,9,11,18(25),19,22-heptaene-16-one]	0.18	0.1	0.14	5010	2160	0.08	2.2	5030	2.18	11300	1490	1.58	5.77	67.9	11300	4.9	1.75	2.92	0.55	Cl_pred (L/kg) ([5]; IV 3 mg/kg): 0.60; Cl_pred (L/kg) ([5]; PO 10 mg/kg): 0.92
O=C1CCOc2ccc(F)cc2[C@@H]2CCCN2c2ccn3ncc(c3n2)N1 [Compound L-1-B, (6S)-9-fluoro-13-oxa-2,17,20,21,24-pentaazapentacyclo[16.5.2.0^2,6.0^7,12.0^21,25]pentacosane-1(24),7,9,11,18(25),19,22-heptaene-16-one]	21.1	15.5	14.2																162	
C[C@H]1CC(=O)Nc2cnn3ccc(nc23)N2CCC[C@@H]2c2cc(F)ccc2O1 [Compound L-2-A, (6R,14S)-9-fluoro-14-methyl-13-oxa-2,17,20,21,24-pentaazapentacyclo[16.5.2.0^2,6.0^7,12.0^21,25]pentacosane-1(24),7,9,11,18(25),19,22-heptaene-16-one]	0.17	0.1	0.1	2480	1620	0.08	2.41	2480	1.2	4470	1410	0.5	2.02	54.2	4530	2.8	1.85	8.50	0.25	Cl_pred (L/kg) ([5]; IV 3 mg/kg): 1.23; Cl_pred (L/kg) ([5]; PO 10 mg/kg): 2.44
C[C@H]1CC(=O)Nc2cnn3ccc(nc23)N2CCC[C@H]2c2cc(F)ccc2O1 [Compound L-2-B, (6S,14S)-9-fluoro-14-methyl-13-oxa-2,17,20,21,24-pentaazapentacyclo[16.5.2.0^2,6.0^7,12.0^21,25]pentacosane-1(24),7,9,11,18(25),19,22-heptaene-16-one]	0.41	0.13	0.18																0.65	
CC1(C)COc2ccc(F)cc2[C@@H]2CCCN2c2ccn3ncc(c3n2)NC1=O [Compound L-3-B, (6S)-9-fluoro-15,15-dimethyl-13-oxa-2,17,20,21,24-pentaazapentacyclo[16.5.2.0^2,6.0^7,12.0^21,25]pentacosane-1(24),7,9,11,18(25),19,22-heptaene-16-one]	> 100	70.8	> 100																	

Continued, in another order:

IC50 [1] [nM]	IC50 [2] [nM]	IC50 [3] [nM]	AUC(0-t) ([5]; IV 3 mg/kg) [ng·h/mL]	Cmax ([5]; IV 3 mg/kg) [ng/mL]	Tmax ([5]; IV 3 mg/kg) [h]	half-life ([5]; IV 3 mg/kg) [h]	AUC(0-inf) ([5]; IV 3 mg/kg) [ng·h/mL]	MRT inf ([5]; IV 3 mg/kg) [h]	AUC(0-t) ([5]; PO 10 mg/kg) [ng·h/mL]	Cmax ([5]; PO 10 mg/kg) [ng/mL]	Tmax ([5]; PO 10 mg/kg) [h]	half-life ([5]; PO 10 mg/kg) [h]	bioavailability [5] [%]	AUC(0-inf) ([5]; PO 10 mg/kg) [ng·h/mL]	MRT inf ([5]; PO 10 mg/kg) [h]	Vz_pred ([5]; IV 3 mg/kg) [L/kg]	Vz_pred ([5]; PO 10 mg/kg) [L/kg]	Compound	IC50 [4] [nM]	also measured
< 0.17	< 0.17	< 0.17	6240	2120	0.08	9.05	6350	4.04	11500	1860	1.67	0.36	55.5	13100	6.23	3.28	10.05	C[C@H]1Nc2ccn3ncc(c3n2)NC(=O)CCOc2ccc(F)cc21 [Compound T-1, (13R)-11-fluoro-13-methyl-6,7,13,14-tetrahydro-1,15-ethenopyrazolo[4,3-f][1,4,8,10]benzoxatriazacyclotridecin-5(6H)-one]	5.13	Cl_pred (L/kg) ([5]; IV 3 mg/kg): 0.47; Cl_pred (L/kg) ([5]; PO 10 mg/kg): 0.77
0.36	0.09	0.09																C[C@@H]1Nc2ccn3ncc(c3n2)NC(=O)C[C@H](C)Oc2ccc(F)cc21 [Compound T-2-B, (7S,13S)-11-fluoro-7,13-dimethyl-6,7,13,14-tetrahydro-1,15-ethenopyrazolo[4,3-f][1,4,8,10]benzoxatriazacyclotidecin-5(6H)-one]	4.79	
0.34	0.57	0.52																C[C@H]1Nc2ccn3ncc(c3n2)NC(=O)C(C)(C)COc2ccc(F)cc21 [Compound T-3]		
4.91	5.31	5.41																C[C@H]1Nc2ccn3ncc(c3n2)NC(=O)NCCOc2ccc(F)cc21 [Compound T-4, (14R)-12-fluoro-14-methyl-5,6,7,8,14,15-hexahydro-1,16-ethenopyrazolo[4,3-g][1,4,9,11]benzoxatetraazacyclotetradecin-5(6H)-one]		
93.9	225	258																C[C@H]1Nc2ccn3ncc(c3n2)NC(=O)NCCCc2ccc(F)cc21 [Compound T-5, (14R)-12-fluoro-14-methyl-5,6,7,8,14,15-hexahydro-1,16-ethenopyrazolo[4,3-g][1,4,9,11]benzodioadiazatridecin-5(6H)-one]		
			4670	5010	0.08	1.45	4670	0.54	4070	1660	0.33	4.11	26.2	4090	2.31	0.75	5.13	C[C@@H]1CCc2ncc(F)cc2[C@H]2CCCN2c2ccn3ncc(c3n2)C(=O)N1 [LOXO-195, reference compound]	2.73	
			3560	2190	0.08	5.77	3580	1.76	5470	732	1.67	0.76	46.1	5590	5.42	4.46	15.81	C[C@H]1CNC(=O)c2cnn3ccc(nc23)N[C@H](C)c2cc(F)ccc2O1 [TPX-0005, reference compound]	1.97	
